Reference: patent publication US10308938B2, “Compositions and methods to activate or inhibit toll-like receptor signaling” (priority 2014, dated 2019)
Oligonucleotides are written 5' to 3', each unit as a sugar letter and its base; * is a phosphorothioate linkage, no mark a phosphodiester; rarer units and linkages stand in square brackets, end groups in braces. Plain capitals give the bases only. d = 2'-deoxy (DNA)

What was measured:
CD4^+ T cells [1] = experiment: Proliferation of CFSE-labeled CD4+ T cells stimulated with anti-CD3 and anti-CD28 in the presence of TLR ligands; format: cell-based, human; details: for proliferation of CD4+ T cells (frequency of proliferating cells): compared to control; for inhibition of proliferation, level relative to IMQ: three days
From the text: Cell isolation and FACS sorting of T cell populations. Peripheral blood mononuclear cells (PBMC) were isolated from healthy donors by Ficoll Hypaque gradient centrifugation. Total CD4^+ T cells were isolated by negative selection using CD4^+ T cell isolation kit (StemCell Technologies, Vancouver, BC) and stained for fluorescence-activated cell sorting (FACS) with the following antibodies: anti-CD45RO (clone UCHL1), CD45RA (clone H1100), CD25 (clone M-A251) (all from BD Biosciences) and CD127 (clone eBioRDR5) from eBioscience (San Diego, Calif.). The Treg (CD4^+CD25^hiCD127^low/neg) memory T cell (CD4^+CD45RA^−CD45RO^+CD25^low/neg+) and naïve T cell (CD4^+CD45RA^+CD45RO^−CD25^low/neg) populations were sorted on a FACS Aria (BD Biosciences). Unless specified, CD4^+ T cells used in the experiments were Treg-depleted CD4^+ T cells and they were sorted as CD4^+CD25^pos/lowCD127^+. The purity of the sorted CD4^+ T cell population was >98% as assessed by CD3 and CD4 staining after sort. CD14^+ cells were isolated by positive selection using EasySep™ Human CD14 Positive Selection Kit (StemCell Technologies).
(§1) Cell activation and intracellular staining.
While examining the costimulatory role of TLR on CD4^+ T cells, it was unexpectedly discovered that entry of CD4^+ cells into cell cycle with T cell receptor cross-linking and anti-CD28 was blocked by TLR7 engagement. Specifically, CD4^+ T cells were stimulated with anti-CD3 and anti-CD28 in the presence of different TLR agonists followed by analysis of proliferation and cytokine secretion.

CD4^+ T cells [2] = experiment: Cytokine secretion by stimulated CD4+ T cells, ELISA; format: cell-based, human; details: day 3 after stimulation
From the text: as §1
(§2) Enzyme-linked immunosorbent assay.

HIV-1NL-D = experiment: HIV-1 in vitro infection of CD4+ T cells; format: cell-based; details: for frequency of HIV-1-infected CD4+ T cells: treatment before infection, MOI 0.001
Experimental: Preparation of HIV-1 virus stocks. HIV-1 proviral DsRed-tagged DNA pNL-D (derived from the prototype HIV-1 proviral DNA pNL432) was kindly provided by Dr. Yasuko Tsunetsugu-Yokota. 293T cells were used to prepare viral stocks following published protocols with minor modifications. In brief, 293T cells were plated at 0.5×10^6/well in 12-well plates and transfected with 2 μg pNL-D using Lipofectamine 2000 (Invitrogen) for 48 hours. Culture supernatant was treated with benzonase (1U/ml) for 30 minutes at 37 C, cleared by filtration and titrated on 293T cells. Stocks were stored at −80 C.
HIV-1 in vitro infection. CD4^+ T cells were stimulated with anti-CD3 (1 μg/ml) and anti-CD28 (1 μg/ml) for 48 hours and subsequently infected with HIV-1 at a MOI of 0.001 (concentration within the physiological range). Viability and cytokine secretion was measured every 48 hours for a total of 11 days after infection.
For HIV-1 infection on TLR7-deficient cells, CD4^+ T cells were stimulated as above and transduced with the corresponding lentiviral particles. 48 hours after transduction, the cells were infected with HIV-1NL-D at a MOI of 0.001. Viability and frequency of HIV-1-infected cells were measured at different time points by LIVE/DEAD cell dye staining and fixation with 1% PFA (to avoid DsRed signal loss). For intracellular staining after infection, the cells were restimulated with PMA and Ionomycin in the presence of GolgiStop for 4 hours and the staining was performed as recommended by Grupillo et al.

CD4^+ T cells [3] = experiment: Intracellular calcium measurement (INDO-1AM); format: cell-based, human
Experimental: Intracellular calcium measurements. Ex vivo isolated CD4^+ T cells were labeled with 5 μM INDO-1AM for one hour at 37° C. in PBS, 1 mM Ca^2+. Cells were washed to remove traces of INDO-1AM, resuspended in buffer at 10^6 cells/ml and incubated for 30 minutes at 37° C. before analysis. When necessary, IRS661 was added at the indicated concentration during the 30 minute incubation. For acquisition, the sample was acquired for approximately 3 minutes to obtain basal levels of calcium and subsequently IMQ or other reagents were added at the indicated concentrations. Samples were acquired for a minimum of 10 minutes on a BD Fortessa instrument and analysed with FlowJo software.

CD4^+ T cells [4] = experiment: Anergy-related gene expression, TaqMan real-time PCR; format: cell-based, human; details: preincubation with IRS661 before IMQ
From the text: (§3) Quantification of mRNA expression levels by RT-PCR. RNA was isolated using QIAGEN RNeasy Micro Plus Kit (QIAGEN, Valencia, Calif.), following manufacturer's guidelines and converted to cDNA by reverse transcription (RT) with random hexamers and Multiscribe RT (TQMN, Reverse Transcription Reagents; Applied Biosystems, Foster City, Calif.). For mRNA gene expression assays, probes were purchased from Applied Biosystems (Table 2) and the reactions were set up following manufacturer's guidelines and run on a StepOne Real-Time PCR System (Applied Biosystems). Values are represented as the difference in Ct values normalized to β2-microglobulin for each sample as per the following formula: Relative RNA expression=(2^−dCt)×1000.
To examine whether TLR7 stimulation and subsequent NFAT dephosphorylation induces the expression of anergy-related genes, CD4^+ T cells were incubated for 2-16 hours with IMQ in the presence or absence of the TLR7 inhibitory sequence IRS661 and RNA was isolated to examine the hypothesis that TLR7 engagement induced expression of anergy-related genes previously described. As a control for anergy-related gene expression, CD4^+ T cells were incubated with either ionomycin and PMA or ionomycin alone. […] The effect observed in the regulation of these genes was TLR7-specific, as preincubation of CD4^+ T cells with IRS661 before IMQ treatment abrogated the increase in anergy-related gene expression.

memory T cells = experiment: IMQ pretreatment, washout, rest and restimulation with anti-CD3 and anti-CD28; format: cell-based, human; details: IRS661 pretreated cells
Experimental: as §2
To determine if pretreatment of CD4^+ T cells with IMQ would be sufficient to diminish their subsequent cytokine secretion and proliferative response to a full stimulation, memory T cells were pre-treated with IMQ for 2 hours and rested for 12 hours after washout to remove traces of IMQ and then stimulated with anti-CD3 and anti-CD28 for 3 days.

HIV-1^+CD4^+ T cells = experiment: Anergy-related gene expression in in vitro HIV-1-infected CD4+ T cells; format: cell-based, human; details: day seven after infection
From the text: as §3
To confirm this observation, the expression of anergy-related genes in in vitro HIV-1-infected CD4^+ T cells from five healthy donors in the presence of IRS661 (to inhibit TLR7) or a control sequence at day seven after infection was examined (FIG. 40).

HIV-1 (NL-432) = experiment: HIV-1 infection of humanized MISTRG mice, viral load; format: in vivo, mouse; details: 20 μM IRS661 at day 0 or day 14 after infection
Experimental: Mouse experiments. MISTRG mice (Nature Biotechnology 2014; 32; 364-372) were infected with HIV-1 (50 ng p24) at day 0 in the presence of 20 μM IRS661 or control sequence (at either day 0 or day 14). Serum was obtained at different time points and RNA was isolated by Direct-zol RNA MiniPrep kit (Zymo Research). Viral load was measured by Gag amplification by Real Time PCR
In order to test the role of TLR7 inhibition in HIV-1 infection in vivo, a humanized mouse model (Rongvaux et al., Nat. Biotech., 32:364-372 (2014)) was used. Three groups of mice were infected with HIV-1 (NL-432): one control group, another group that was injected with IRS661 at the same time of HIV-1 infection (day 0), and a third group where IRS661 was injected at the peak of infection (day 14 after HIV-1 infection). […] For those mice that were injected with IRS661 at day 14 after infection (FIG. 55, white dots), viral load was measured at day 21 after infection. One mouse from the control group (black dots) died at day 17.

HIV-1 [5] = details: supernatants every three days, 14 days
From the text: CD4^+ T cells isolated from HIV-1 infected patients (Table 3) were stimulated in the presence of IRS661 (FIG. 50) or were transduced with two TLR7-specific shRNA (FIG. 51) with supernatant collections every three days for a total of 14 days to measure virus concentration by p24 ELISA.

HIV-1 [6] = details: day seven; compared to control cells
Experimental: Furthermore, proviral integrated DNA load was measured at day seven after stimulation in the presence of IRS661 or a control sequence (FIG. 52) and after transduction with TLR7-specific shRNA (FIG. 53) to monitor the cellular viral reservoir.

Compound	proliferation of CD4+ T cells (frequency of proliferating cells) (CD4^+ T cells [1])	IFNγ secretion (CD4^+ T cells [2])	IL-2 secretion (CD4^+ T cells [2])	IL-4 secretion (CD4^+ T cells [2])	IL-17 secretion (CD4^+ T cells [2])	also measured
CCNCc1nc2c(N)nc3ccccc3c2n1CC(C)(C)O [Gardiquimod]	significant decrease	inhibited	inhibited	inhibited	inhibited	inhibition of proliferation, level relative to IMQ (CD4^+ T cells [1]): comparable to IMQ treatment
COc1cc(N(CC(=O)OCOC(C)=O)CC(=O)OCOC(C)=O)c2nc(COc3cc(C)ccc3N(CC(=O)OCOC(C)=O)CC(=O)OCOC(C)=O)ccc2c1 [Quin-2 AM]	–	–	–	–	–	frequency of viable cells (HIV-1NL-D): significantly decreased; frequency of HIV-1-infected CD4+ T cells (HIV-1NL-D): marked decrease
C[C@H](CCC(=O)O)C[C@H](C)C[C@H](C)C(=O)/C=C(\O)[C@H](C)C[C@H](C)C/C=C/[C@@H](C)[C@@H](O)[C@@H](C)[C@@H](O)C[C@@H]1CC[C@@](C)([C@H]2CC[C@@](C)([C@@H](C)O)O2)O1 [ionomycin]	–	–	–	–	–	frequency of HIV-1-infected CD4+ T cells (HIV-1NL-D): increased
5′-TGCTTGCAAGCTTGCAAGCA-3′ (DNA dT*dG*dC*dT*dT*dG*dC*dA*dA*dG*dC*dT*dT*dG*dC*dA*dA*dG*dC*dA) [IRS661]	–	–	–	–	–	increase in calcium concentration upon IMQ stimulation (CD4^+ T cells [3]; pre-incubation with IRS661): impaired; IMQ-induced increase in anergy-related gene expression (CD4^+ T cells [4]): abrogated; IMQ-induced decrease of IFNγ production (memory T cells): not observed; IMQ-induced decrease of IL-2 production (memory T cells): not observed; expression of 12 anergy-related genes in HIV-1+CD4+ T cells (HIV-1^+CD4^+ T cells): did not upregulate any of these genes; HIV-1 viral load (HIV-1 (NL-432)): decreases; concentration of p24 in culture (HIV-1 [5]): strongly decreased; proviral DNA load (HIV-1 [6]): dramatic decrease
Poly(I:C)	–	–	–	–	–	intracellular calcium concentration (CD4^+ T cells [3]; INDO-1AM ratio over time): not observed
C=CCn1c(=O)n([C@@H]2O[C@H](CO)[C@@H](O)[C@H]2O)c2nc(N)[nH]c(=O)c21 [Loxoribine]	significant decrease	inhibited	inhibited	inhibited	inhibited	inhibition of proliferation, level relative to IMQ (CD4^+ T cells [1]): comparable to IMQ treatment
CCCCNc1nc(N)c2[nH]c(=O)n(Cc3ccc(C(=O)NCC(=O)O)cc3)c2n1 [CL264]	significant decrease	inhibited	inhibited	inhibited	inhibited	–
